Source: PMC9586283 (Proceedings of the National Academy of Sciences of the …, 2022)

Key:
[1] = system: wild-type Mlh1-Pms1; assay: Mlh1-Pms1 endonuclease assay; assay type: biochemical, S. cerevisiae; conditions: 7.5 nM PCNA, 30 nM RFC-Δ1N, 35 nM Mlh1-Pms1, 1 mM MnSO4, 20 mM Tris (pH 7.5), 0.5 mM ATP, 100 ng supercoiled pRS425, 30 °C, 30 min, agarose gel
[2] = system: end-blocked, mispair-containing DNA; assay type: binding; conditions: 20 nM Msh2-Msh6, 40 nM Mlh1-Pms1, 250 μM ATP, 25 °C, 20 μL/min, 236-bp DNA, Biacore T100
[3] = system: supercoiled DNA plasmid; assay type: biochemical
[4] = system: 3′ AflIII CC substrate; assay: Reconstituted Exo1- and Mlh1-Pms1-dependent MMR reaction in vitro; assay type: biochemical
[5] = system: Pms1; assay: Interaction of mutant Mlh1 with Pms1 during protein purification; assay type: binding, S. cerevisiae

| Substance | Mlh1-Pms1 endonuclease activity ([1]; peptide-to-heterodimer molar ratio of 250:1) | Mlh1-Pms1 endonuclease activity ([1]; peptide-to-heterodimer molar ratio of 1,000:1) | recruitment by Msh2-Msh6, increase in response units [2] | nicking activity relative to wild-type Mlh1-Pms1 ([3]; % of the nicking activity of the wild-type Mlh1-Pms1 protein, RFC-Δ1N and PCNA, ATP, 35 nM Mlh1-Pms1, 30 °C, 30 min, in triplicate) | endonuclease activity (in words) ([3]; in vitro, with PCNA, RFC-Δ1N and ATP) | MMR in vitro (in words) [4] | ability to interact with Pms1 [5] |
| --- | --- | --- | --- | --- | --- | --- | --- |
| KAKRQENKLVRIDASQAKITSFLSS [wild-type peptide] | ~70% | ~50% | – | – | – | – | – |
| Mlh1-Pms1: wild-type S. cerevisiae Mlh1-Pms1 endonuclease heterodimer | – | – | robust increase in the response units | – | – | – | – |
| Mlh1(RADA)-Pms1 | – | – | robust increase in the response units | ~10% | defective for MMR and endonuclease activity in vitro | defective for MMR | did not observe any defects in the ability of Mlh1(RADA) to interact with Pms1 |
